Test results from publication PMC6116703, “Ethenesulfonyl fluoride derivatives as telomerase inhibitors: structure-based design, SAR, and anticancer evaluation in vitro” (Journal of Enzyme Inhibition and Medicinal Chemistry, 2018).
Where two headings read alike, the source gives them in different places.

Tests used:
[1] = test system: human melanoma cell A375; assay: Cell proliferation (MTT) assay, A375; type: cell-based
Experimental: (§1) The antiproliferative activities evaluation was conducted by using a modified procedure as described in the literature. Briefly, target tumour cells were grown to log phase in RPMI 1640 medium supplemented with 10% fetal bovine serum. After diluting to 3 × 10^4 cells mL^−1 with the complete medium, 100 µL of the obtained cell suspension was added to each well of 96-well culture plates. The subsequent incubation was performed at 37 °C, 5% CO2 atmosphere for 24 h before subjecting to antiproliferation assessment. The tested samples at pre-set concentrations were added to six wells with Doxorubicin (AMD) co-assayed as a positive reference. After 48 h of exposure period, 25 µL of PBS containing 2.5 mg·mL^−1 of MTT was added to each well. After 4 h, the medium was replaced by 150 µL DMSO to dissolve the purple formazan crystals produced. The absorbance at 570 nm of each well was measured using an ELISA plate reader. The data represented the mean of three experiments in triplicate and were expressed as means ± SD using Student’s test.

[2] = test system: human breast cancer cell MDA-MB-231; assay: Cell proliferation (MTT) assay, MDA-MB-231; type: cell-based
Experimental: as §1

[3] = test system: human hepatoma cell SMMC-7721; assay: Cell proliferation (MTT) assay, SMMC-7721; type: cell-based; conditions: read-out: IC50 SMMC-7721
Experimental: as §1

[4] = test system: human gastric cancer cells SGC-7901; assay: Cell proliferation (MTT) assay, SGC-7901; type: cell-based; conditions: read-out: IC50 SGC-7901
Experimental: as §1

[5] = test system: human normal liver cell (L-02); assay: Proliferative inhibition assay of human normal cell L-02 (MTT); type: cell-based; conditions: normal liver cells
Experimental: as §1
(§2) In order to determine the selective cancer cell toxicity of some title compounds. We subsequently conducted a proliferative inhibition assay with human normal liver cell (L-02) and gastric mucosa cell (GES-1).

[6] = test system: gastric mucosa cell (GES-1); assay: Proliferative inhibition assay of human normal cell GES-1 (MTT); type: cell-based
Experimental: as §1, §2

[7] = molecular target: T1, telomerase (Homo sapiens, UniProt O14746); assay: Telomerase activity TRAP-PCR-ELISA assay (A375 cell extract); type: biochemical; conditions: IC50 inhibitory activity against telomerase, TRAP-PCR-ELISA, A375 cells, 24 h treatment
T1 construct: endogenous in cells; host or cells: A375 human melanoma cells
Experimental: Thirty-six compounds were tested in a search for inhibitors of telomerase activity using the TRAP-PCR-ELISA assay. In detail, the A375 cells were firstly maintained in RPMI 1640 buffer (Hyclone, Miami, FL), supplemented with 10% fetal bovineserum (GIBCO, New York, NY), streptomycin (0.1 mg/mL) and penicillin (100 IU/mL) at 37 °C in a humidified atmosphere containing 5% CO2. After trypsinisation, 5 × 10^4 cultured cells in logarithmic growth were seeded into T25 flasks (Corning, New York, NY) and cultured to allow to adherence. […] After 24 h treatment, the cells were harvested by cell scraper orderly followed by washing once with PBS. The cells were lysed in 150 µL RIPA cell lysis buffer (Santa Cruz, Santa Cruz, CA), and incubated on ice for 30 min. The cellular supernatants were obtained via centrifugation at 12,000g for 20 min at 4 °C and stored at –80 °C. The TRAP-PCR-ELISA assay was performed using a telomerase detection kit (Roche, Basel, Switzerland) according to the manufacturer’s protocol. In brief, 2 µL of cell extracts were mixed with 48 µL TRAP reaction mixtures. TRAP primers and Taq polymerase are incubated at 25 °C for 30 min. PCR was then initiated at 94 °C, 120 s for predenaturation and performed using 35 cycles each consisting of 94 °C for 30 s, 50 °C for 30 s, 72 °C for 90 s. Then 20 µL of PCR products were hybridised to a digoxigenin (DIG)-labelled telomeric repeat specific detection probe. And the PCR products were immobilised via the biotin-labelled primer to a streptavidin-coated microtiter plate subsequently. The immobilised DNA fragments were detected with a peroxidase-conjugated anti-DIG antibody and visualised following the addition of the stop regent. The microtitre plate was assessed on TECAN Infinite M200 microplate reader (Mannedorf, Switzerland) at a wavelength of 490 nm, and the final value were presented as mean ± SD[23].

[8] = test system: human gastric cancer cells MGC-803; assay: Cell proliferation (MTT) assay, MGC-803; type: cell-based; conditions: read-out: IC50 MGC-803
Experimental: as §1

[9] = antiproliferative, MTT, 48 h exposure, read-out: IC50 A375
[10] = antiproliferative, MTT, 48 h exposure, read-out: IC50 MDA-MB-231
[11] = antiproliferative, MTT, 48 h exposure
[12] = Homo sapiens, A-375, 48 h, read-out: IC50 A375, antiproliferative, MTT, 48 h exposure
[13] = read-out: IC50 A375, antiproliferative, MTT, 48 h exposure
[14] = Homo sapiens, MDA-MB-231, 48 h, read-out: IC50 MDA-MB-231, antiproliferative, MTT, 48 h exposure
[15] = Homo sapiens, GES1, normal gastric mucosa cells

T1 sequence (O14746 whole entry): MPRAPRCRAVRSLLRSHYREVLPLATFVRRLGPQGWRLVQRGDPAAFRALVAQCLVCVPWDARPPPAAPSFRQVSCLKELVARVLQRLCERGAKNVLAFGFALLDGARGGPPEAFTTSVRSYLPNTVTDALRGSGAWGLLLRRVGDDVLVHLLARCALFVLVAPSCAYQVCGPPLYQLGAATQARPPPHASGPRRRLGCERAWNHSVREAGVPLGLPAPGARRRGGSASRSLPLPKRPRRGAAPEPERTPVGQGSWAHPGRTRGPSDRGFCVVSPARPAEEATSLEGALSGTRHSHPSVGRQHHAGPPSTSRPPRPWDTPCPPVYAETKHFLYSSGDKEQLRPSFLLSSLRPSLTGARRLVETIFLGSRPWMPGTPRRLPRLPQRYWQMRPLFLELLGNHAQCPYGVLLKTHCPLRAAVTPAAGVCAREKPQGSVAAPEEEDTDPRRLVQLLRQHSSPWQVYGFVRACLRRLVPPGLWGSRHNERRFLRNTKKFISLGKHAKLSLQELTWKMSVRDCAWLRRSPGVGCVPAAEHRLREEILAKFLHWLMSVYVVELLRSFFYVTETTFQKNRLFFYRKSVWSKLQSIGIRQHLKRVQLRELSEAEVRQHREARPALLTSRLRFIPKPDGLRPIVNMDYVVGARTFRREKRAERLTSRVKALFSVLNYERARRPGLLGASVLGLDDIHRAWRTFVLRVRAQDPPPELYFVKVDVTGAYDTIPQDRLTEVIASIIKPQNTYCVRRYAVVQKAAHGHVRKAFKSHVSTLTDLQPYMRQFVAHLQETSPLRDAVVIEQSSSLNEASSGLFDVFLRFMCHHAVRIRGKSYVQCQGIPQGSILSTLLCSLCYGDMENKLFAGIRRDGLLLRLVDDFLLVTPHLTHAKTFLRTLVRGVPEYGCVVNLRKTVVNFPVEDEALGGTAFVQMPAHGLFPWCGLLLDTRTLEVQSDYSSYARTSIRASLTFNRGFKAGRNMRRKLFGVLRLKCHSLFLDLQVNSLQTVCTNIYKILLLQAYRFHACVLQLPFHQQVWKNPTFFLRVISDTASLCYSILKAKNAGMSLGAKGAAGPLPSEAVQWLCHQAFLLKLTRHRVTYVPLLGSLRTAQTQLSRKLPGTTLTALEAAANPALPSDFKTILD

Compound | IC50 [1, 9] [µM] | IC50 [2, 10] [µM] | IC50 [3, 11] [µM] | IC50 [4, 11] [µM] | IC50 [1, 12] [µM] | IC50 [2, 14] [µM] | IC50 [7] [µM] | further results
CC(C)(C)c1ccc(/C=C/C=C/S(=O)(=O)F)cc1 [Compound 50] | 20.7 ± 1.39 | 31.6 ± 1.2 | 29.1 ± 1.27 | 26.9 ± 0.56 | – | – | – | –
O=S(=O)(F)/C=C/C=C/c1ccc(/C=C/S(=O)(=O)F)cc1 [Compound 57, (1E,3E)-4-(4-((E)-2-(fluorosulfonyl)vinyl)phenyl)buta-1,3-diene-1-sulfonyl fluoride] | – | – | – | – | ~3 | 3.22 ± 0.18 | 0.97 ± 0.12 | IC50 [1, 13]: 1.58 ± 0.06 µM; IC50 ([5]; Homo sapiens): < 2000 µM; IC50 [5]: 2010 ± 160 µM; IC50 [6, 15]: < 2000 µM; IC50 ([6]; normal gastric mucosa cells): 2190 ± 180 µM
O=S(=O)(F)/C=C/c1cc(Cl)cc(Cl)c1 [Compound 69] | – | – | – | – | 8.79 ± 0.61 | 7.95 ± 0.4 | 4.22 ± 0.71 | IC50 ([3]; Homo sapiens, SMMC-7721, 48 h): 11.5 ± 0.39 µM; IC50 ([4]; Homo sapiens, SGC-7901, 48 h): 36.8 ± 1.25 µM; IC50 ([8]; Homo sapiens, MGC-803, 48 h): 25.1 ± 0.54 µM
O=S(=O)(F)/C=C/c1cccs1 [Compound 40] | 6.73 ± 0.5 | 18.3 ± 0.8 | 35.6 ± 0.55 | 51.3 ± 2.55 | – | – | – | –
O=S(=O)(F)/C=C/c1cccc2c1sc1ccccc12 [Compound 43] | 38.6 ± 0.61 | 44 ± 1.2 | 34.5 ± 0.77 | 24.8 ± 0.89 | – | – | – | –
O=S(=O)(F)/C=C/c1cc(Cl)nc(Cl)c1 [Compound 80] | – | – | – | – | – | – | 49.3 ± 2.55 | IC50 ([4]; Homo sapiens, SGC-7901, 48 h): 26.8 ± 1.01 µM
COc1cccc2c1C(=O)c1c(O)c3c(c(O)c1C2=O)C[C@@](O)(C(=O)CO)C[C@@H]3O[C@H]1C[C@H](N)[C@H](O)[C@H](C)O1 [AMD, Doxorubicin, reference compound] | – | – | – | – | – | – | – | IC50 ([1]; Homo sapiens, A-375, 48 h, antiproliferative, MTT, 48 h exposure, read-out: IC50 A375): 0.52 ± 0.14 µM; IC50 ([2]; Homo sapiens, MDA-MB-231, 48 h, antiproliferative, MTT, 48 h exposure, read-out: IC50 MDA-MB-231): 0.81 ± 0.11 µM; IC50 ([3]; Homo sapiens, SMMC-7721, antiproliferative, MTT, 48 h exposure): 1.05 ± 0.09 µM; IC50 ([4]; Homo sapiens, SGC-7901, antiproliferative, MTT, 48 h exposure): 0.92 ± 0.08 µM; IC50 ([8]; Homo sapiens, MGC-803, antiproliferative, MTT, 48 h exposure): 0.67 ± 0.08 µM
O=S(=O)(F)/C=C/C=C/c1ccccc1 [Compound 48] | – | – | – | – | 27.4 ± 1.5 | 39.7 ± 1.39 | 40.2 ± 1.3 | IC50 ([3]; Homo sapiens, SMMC-7721, 48 h): 51 ± 1.91 µM; IC50 ([4]; Homo sapiens, SGC-7901, 48 h): 49.1 ± 1.39 µM
CC(C)c1cccc(/C=C/S(=O)(=O)F)c1 [Compound 74] | 26.8 ± 1.22 | 34.7 ± 1.2 | – | 31.8 ± 0.82 | – | – | – | IC50 [8, 11]: 35.3 ± 1.25 µM
O=S(=O)(F)/C=C/c1cccc(/C=C/S(=O)(=O)F)c1 [Compound 70] | – | – | – | – | ~3 | 4.22 ± 0.2 | 1.01 ± 0.13 | IC50 [1, 13]: 3.09 ± 0.19 µM; IC50 ([3]; Homo sapiens, SMMC-7721, 48 h): 3 ± 0.18 µM; IC50 ([4]; Homo sapiens, SGC-7901, 48 h): 5.38 ± 0.3 µM; IC50 ([8]; Homo sapiens, MGC-803, 48 h): 3.15 ± 0.27 µM
CC(=O)c1cccc(/C=C/S(=O)(=O)F)c1 [Compound 21] | 16.6 ± 0.91 | 23.1 ± 2.78 | 11.8 ± 0.6 | 30.8 ± 2 | – | – | – | –
O=S(=O)(F)/C=C/c1ccccc1 [Compound 1] | – | – | – | – | 5.21 ± 0.39 | 8.67 ± 0.61 | 2.41 ± 0.51 | IC50 ([5]; Homo sapiens): 1970 ± 200 µM; IC50 [6, 15]: 1450 ± 170 µM
CCc1ccc(/C=C/S(=O)(=O)F)cc1 [Compound 2] | 22.8 ± 0.71 | 58.6 ± 1.78 | 28.5 ± 1.47 | – | – | – | – | IC50 [8, 11]: 28.6 ± 1.27 µM
Cc1ccc(S(=O)(=O)n2cc(/C=C/S(=O)(=O)F)cn2)cc1 [Compound 61] | – | – | – | – | 27.3 ± 1 | 26.9 ± 1.2 | – | IC50 ([3]; Homo sapiens, SMMC-7721, 48 h): 28.2 ± 1.49 µM; IC50 ([8]; Homo sapiens, MGC-803, 48 h): 27.1 ± 1.03 µM
CS(=O)(=O)c1ccc(/C=C/S(=O)(=O)F)cc1 [Compound 66] | 8.56 ± 0.49 | 30.3 ± 1.22 | 52 ± 1.7 | – | – | – | – | IC50 [8, 11]: 19.6 ± 1.17 µM
